Results taken from patent publication US8022203B2, “Amino derivatives of beta-homoandrostanes and beta-heteroandrostanes” (Sigma-Tau Industrie Farmaceutiche Riunite S.p.A., priority 2006, dated 2011).
Structures can show the parent of a compound that is named as a salt. Where two headings read alike, the source gives them in different places.

Key:
[1] = molecular target: Na^+,K^+-ATPase (Canis lupus familiaris, UniProt P50997); experiment: Dog kidney Na+,K+-ATPase inhibition (hydrolysis of 32P-ATP); assay type: biochemical
[2] = system: spontaneous hypertensive rats of the Milan (MHS); experiment: Systolic blood pressure fall in spontaneous hypertensive rats (MHS), tail-cuff; assay type: in vivo, rat; conditions: five weeks, vs vehicle control
[3] = system: anesthetized guinea-pig; experiment: Inotropic effect and lethal dose, slow intravenous infusion in anesthetized guinea-pig; conditions: for % decrease from Emax after 20 min from the end of the infusion: 20 minutes after the end of the infusion; for Lethal dose/ED80: calculated in the died animals; for Maximum dose infused: in the survived animals; for Dead/treated / ED80 (dose increasing +dP/dTmax by 80%) / EDmax (dose inducing maximum positive inotropic effect) / Emax % increase in +dP/dTmax: slow intravenous infusion over 90 minutes; for safety ratio compared with reference cardiotonics / duration of the inotropic effect: in words; for duration of the inotropic effect: after stopping the infusion
[4] = dog kidney enzyme, read-out: Na^+,K^+-ATPase Inhibition IC50
[5] = Na^+,K^+-ATPase Inhibition IC50

Q: With `C[C@]12CCC(=NOCCN)CC1C(=O)C[C@@H]1[C@@H]2CC[C@]2(C)C(=O)CC[C@@H]12.Cl` (mixture of isomers) [Compd. 22b, (EZ) 3-(2-aminoethoxyimino)androstane-6,17-dione hydrochloride, reference compound] as the compound, how does the IC50 [1, 4] read?
A: 330 nM

Q: What about the SBP - % ([2]; 10 μg/kg/os daily) of the same compound?
A: 2.2%

Q: What about the “SBP - mm Hg (decrease in systolic blood pressure)” value ([2]; 10 μg/kg/os daily) of the same compound?
A: 3.6 +/− 4.8 mm Hg

Q: What about the SBP - % ([2]; 100 μg/kg/os daily) of the same compound?
A: 6.6%

Q: And the “SBP - mm Hg (decrease in systolic blood pressure)” value ([2]; 100 μg/kg/os daily)?
A: 10.7 +/− 7.5 mm Hg

Q: What about the “% decrease from Emax after 20 min from the end of the infusion” value (“% decrease from Emax after 20 min” for short) [3] of the same compound?
A: 100%

Q: And the “Lethal dose/ED80” value [3]?
A: 22.6

Q: What about the Maximum dose infused [3] of the same compound?
A: 32.1 µmol/kg

Q: What about the Dead/treated [3] of the same compound?
A: 7/8

Q: What about the “ED80 (dose increasing +dP/dTmax by 80%)” value [3] of the same compound?
A: 1.82 µmol/kg

Q: And the “EDmax (dose inducing maximum positive inotropic effect)” value (from here on “EDmax”) [3]?
A: 5.74 µmol/kg

Q: And the “Emax % increase in +dP/dTmax” value [3]?
A: 182%

Q: For `CNCCCON=C1CCC2(C)C(C1)NC(=O)CC1C3CCC(=O)C3(C)CCC12` (stereo not shown) [I-ac, (E,Z) 3-(3-N-Methylaminopropoxyimino)-6-aza-7a-homoandrostane-7,17-dione fumarate], which IC50 [1, 4] is on record?
A: 19000 nM

Q: What about the SBP - % ([2]; 10 μg/kg/os daily) of the same compound?
A: 4.2%

Q: What about the “SBP - mm Hg (decrease in systolic blood pressure)” value ([2]; 10 μg/kg/os daily) of the same compound?
A: 7.2 +/− 0.7 mm Hg

Q: `CC12CCC3C(CC(=O)NC4CC(=NOC5CCNC5)CCC43C)C1CCC2=O` [I-ad, (E,Z) 3-[3-(R)-Pyrrolidinyl]oxyimino-6-aza-7a-homoandrostane-7,17-dione fumarate] was tested. Which IC50 [1, 5] did it give?
A: 950 nM

Q: With `CC12CCC3C(CC(=S)NC4CC(=NOCCN)CCC43C)C1CCC2=O` (stereo not shown) [I-aj, (E,Z) 3-(2-Aminoethoxyimino)-6-aza-7a-homo-7-thioxoandrostane-17-one hydrochloride] as the compound, how does the IC50 [1, 4] read?
A: 6500 nM

Q: `CC12CCC3C(CCNC4CC(=NOCCN)CCC43C)C1CCC2=O` (stereo not shown) [I-ak, (E,Z)—3-(2-Aminoethoxyimino)-6-aza-7a-homoandrostane-17-one dihydrochloride] was tested. Which IC50 [1, 4] did it give?
A: 29000 nM

Q: Which IC50 [1, 5] does the source give for `CC12CCC3C(CCNC4CC(=NOC5CCNC5)CCC43C)C1CCC2=O` [I-am, (E,Z) 3-[3-(R)-Pyrrolidinyl]oxyimino-6-aza-7a-homoandrostane-17-one dihydrochloride] here?
A: 9500 nM

Q: `CC12CCC3C(CCN(C=O)C4CC(=NOCCN)CCC34C)C1CCC2=O` (stereo not shown) [I-an, (E,Z) 3-(2-Aminoethoxyimino)-6-aza-6-formyl-7a-homoandrostane-17-one hydrochloride] was tested. Which IC50 [1, 4] did it give?
A: 23000 nM

Q: How did the IC50 [1, 4] turn out when `CON=C1CC2C3CCC(=O)C3(C)CCC2C2(C)CCC(=NOCCN)CC2N1` (stereo not shown) [I-at, (E,Z) 3-(2-Aminoethoxyimino)-6-aza-7a-homo-7-(Z)-methoxyimino-androstane-17-one hydrochloride] was run?
A: 48000 nM

Q: How did the IC50 [1, 5] turn out when `CON=C1CC2C3CCC(=O)C3(C)CCC2C2(C)CCC(=NOC3CCNC3)CC2N1` [I-au, 3-(E,Z)-[3-(R)-Pyrrolidinyl]oxyimino-6-aza-7a-homo-7-(Z)-methoxyimino-androstane-17-one hydrochloride] was run?
A: 68000 nM

Q: Which IC50 [1, 4] does the source give for `CC12CCC3C(NC(=O)CC4CC(=NOCCN)CCC43C)C1CCC2=O` (stereo not shown) [I-av, (E,Z) 3-(2-Aminoethoxyimino)-7a-aza-7a-homoandrostane-7,17-dione hydrochloride] here?
A: 27000 nM

Q: `CNCCCON=C1CCC2(C)C(CC(=O)NC3C4CCC(=O)C4(C)CCC32)C1` (stereo not shown) [I-aw, (E,Z) 3-(3-N-Methylaminopropoxyimino)-7a-aza-7a-homoandrostane-7,17-dione hydrochloride] was tested. Which IC50 [1, 4] did it give?
A: 9900 nM

Q: How did the IC50 [1, 5] turn out when `CC12CCC3C(NC(=O)CC4CC(=NOC5CCNC5)CCC43C)C1CCC2=O` [I-ax, (E,Z) 3-[3-(R)-Pyrrolidinyl]oxyimino-7a-aza-7a-homoandrostane-7,17-dione hydrochloride] was run?
A: 4800 nM

Q: How did the IC50 [1, 4] turn out when `CC12CCC3C(NCCC4CC(=NOCCN)CCC43C)C1CCC2=O` (stereo not shown) [I-ay, (E,Z) 3-(2-Aminoethoxyimino)-7a-aza-7a-homoandrostane-17-one difumarate] was run?
A: 400 nM

Q: `CNCCCON=C1CCC2(C)C(CCNC3C4CCC(=O)C4(C)CCC32)C1` (stereo not shown) [I-az, (E,Z) 3-(3-N-Methylaminopropoxyimino)-7a-aza-7a-homoandrostane-17-one difumarate] was tested. Which IC50 [1, 4] did it give?
A: 1800 nM

Q: Which IC50 [1, 5] does the source give for `CC12CCC3C(NCCC4CC(=NOC5CCNC5)CCC43C)C1CCC2=O` [I-ba, (E,Z) 3-[3-(R)-Pyrrolidinyl]oxyimino-7a-aza-7a-homoandrostane-17-one Difumarate] here?
A: 140 nM

Q: What about the “% decrease from Emax after 20 min” value [3] of the same compound?
A: 55%

Q: What about the Maximum dose infused [3] of the same compound?
A: 50.0 µmol/kg

Q: What about the “safety ratio compared with reference cardiotonics” value [3] of the same compound?
A: higher safety ratios than those displayed by digitoxin and compd 22b

Q: And the “duration of the inotropic effect” value [3]?
A: prolonged action

Q: What about the Dead/treated [3] of the same compound?
A: 0/3

Q: What about the “ED80 (dose increasing +dP/dTmax by 80%)” value [3] of the same compound?
A: 1.68 µmol/kg

Q: What about the “EDmax” value [3] of the same compound?
A: 10.1 µmol/kg

Q: What about the “Emax % increase in +dP/dTmax” value [3] of the same compound?
A: 218%

Q: For `CC12CCC3C(C1CCC2=O)N(C=O)CCC1CC(=NOC2CCNC2)CCC13C` [I-bd, (E,Z) 3-[3-(R)-Pyrrolidinyl]oxyimino-7a-aza-7a-formyl-7a-homoandrostane-17-one hydrochloride], which IC50 [1, 4] is on record?
A: 57000 nM

Q: For `CC12CCC3C(COC(=O)C4CC(=NOCCN)CCC43C)C1CCC2=O` (stereo not shown) [I-be, (E,Z) 3-(2-Aminoethoxyimino)-7-oxa-7a-homoandrostane-6,17-dione hydrochloride], which IC50 [1, 5] is on record?
A: 1600 nM

Q: Which IC50 [1, 5] does the source give for `CNCCCON=C1CCC2(C)C(C1)C(=O)OCC1C3CCC(=O)C3(C)CCC12` (stereo not shown) [I-bf, (E,Z)-3-(3-N-Methylaminopropoxyimino)-7-oxa-7a-homoandrostane-6,17-dione hydrochloride] here?
A: 1900 nM

Q: For `CC12CCC3C(COC(=O)C4CC(=NOC5CCNC5)CCC43C)C1CCC2=O` [I-bg, (E,Z) 3-[3-(R)-Pyrrolidinyl]oxyimino-7-oxa-7a-homoandrostane-6,17-dione hydrochloride], which IC50 [1, 5] is on record?
A: 810 nM

Q: How did the IC50 [1, 4] turn out when `CC12CCC3C(CC(=O)OC4CC(=NOCCN)CCC43C)C1CCC2=O` (stereo not shown) [I-bh, (E,Z) 3-(2-Aminoethoxyimino)-6-oxa-7a-homoandrostane-7,17-dione fumarate] was run?
A: 240 nM

Q: For `CC12CCC3C(OC(=O)CC4CC(=NOCCN)CCC43C)C1CCC2=O` (stereo not shown) [I-bi, (E,Z) 3-(2-Aminoethoxyimino)-7a-oxa-7a-homoandrostane-7,17-dione hydrochloride], which IC50 [1, 4] is on record?
A: 850 nM

Q: Which IC50 [1, 5] does the source give for `CNCCCON=C1CCC2(C)C(CC(=O)OC3C4CCC(=O)C4(C)CCC32)C1` (stereo not shown) [I-bj, (E,Z) 3-(3-N-Methylaminopropoxyimino)-7a-oxa-7a-homoandrostane-7,17-dione hydrochloride] here?
A: 2200 nM

Q: Which IC50 [1, 5] does the source give for `CC12CCC3C(OC(=O)CC4CC(=NOC5CCNC5)CCC43C)C1CCC2=O` [I-bk, (E,Z) 3-[3-(R)-Pyrrolidinyl]oxyimino-7a-oxa-7a-homoandrostane-7,17-dione hydrochloride] here?
A: 360 nM

Q: What about the “% decrease from Emax after 20 min” value [3] of the same compound?
A: 50%

Q: And the Maximum dose infused [3]?
A: 25.3 µmol/kg

Q: What about the “safety ratio compared with reference cardiotonics” value [3] of the same compound?
A: higher safety ratios than those displayed by digitoxin and compd 22b

Q: And the “duration of the inotropic effect” value [3]?
A: prolonged action

Q: And the Dead/treated [3]?
A: 0/3

Q: What about the “ED80 (dose increasing +dP/dTmax by 80%)” value [3] of the same compound?
A: 2.11 µmol/kg

Q: What about the “EDmax” value [3] of the same compound?
A: 23.9 µmol/kg

Q: And the “Emax % increase in +dP/dTmax” value [3]?
A: 254%

Q: `CC12CCC3C(C(=O)OC4CC(=NOCCN)CCC43C)C1CCC2=O` (stereo not drawn) [I-bl, (E,Z) 3-(2-Aminoethoxyimino)-6-oxa-5β-androstane-7,17-dione hydrochloride] was tested. Which IC50 [1, 4] did it give?
A: 2500 nM

Q: For `CC12CCC3C(CC(=O)NC4CC(=NOCCN)CCC43C)C1CCC2=O` (stereo not shown) [I-bm, (E) 3-(2-Aminoethoxyimino)-6-aza-7a-homoandrostane-7,17-dione fumarate], which IC50 [1, 5] is on record?
A: 25000 nM

Q: `CC12CCC3C(CC(=O)NC4CC(=NOCCN)CCC43C)C1CCC2=O` (stereo not shown) [I-bn, (Z) 3-(2-Aminoethoxyimino)-6-aza-7a-homoandrostane-7,17-dione fumarate] was tested. Which IC50 [1, 5] did it give?
A: 61000 nM

Q: Which IC50 [1, 5] does the source give for `CC12CCC3C(CCCC4CC(=NOCCN)CCC43C)C1CCC2=O` (stereo not shown) [I-bo, (E,Z) 3-(2-Aminoethoxyimino)-B-homoandrostane-17-one hydrochloride] here?
A: 71 nM

Q: For `CC12CCC3C(CCCC4CC(=NOC5CCNC5)CCC43C)C1CCC2=O` [I-bp, (E,Z)-3-[3-(R)-Pyrrolidinyl]oxyimino-B-homoandrostane-17-one hydrochloride], which IC50 [1, 5] is on record?
A: 40 nM

Q: For `CNCCCON=C1CCC2(C)C(C1)OC(=O)CC1C3CCC(=O)C3(C)CCC12` (stereo not shown) [I-bq, (E,Z)-3-(3-N-Methylaminopropoxyimino)-6-oxa-7a-homoandrostane-7,17-dione fumarate], which IC50 [1, 5] is on record?
A: 3700 nM

Q: `CC12CCC3C(CC(=O)OC4CC(=NOC5CCNC5)CCC43C)C1CCC2=O` [I-br, (E,Z) 3-[3-(R)-Pyrrolidinyl]oxyimino-6-oxa-7a-homoandrostane-7,17-dione fumarate] was tested. Which IC50 [1, 5] did it give?
A: 1300 nM

Q: Which IC50 [1, 4] does the source give for `CC12CCC3C(CCOC4CC(=NOCCN)CCC43C)C1CCC2=O` (stereo not shown) [I-bs, (E,Z)-3-(2-Aminoethoxyimino)-6-oxa-7a-homoandrostane-17-one hydrochloride] here?
A: 130 nM

Q: How did the IC50 [1, 4] turn out when `CC12CCC3C(OCCC4CC(=NOCCN)CCC43C)C1CCC2=O` (stereo not shown) [I-bt, (E,Z)-3-(2-Aminoethoxyimino)-7a-oxa-7a-homoandrostane-17-one hydrochloride] was run?
A: 160 nM

Q: How did the IC50 [1, 4] turn out when `CC12CCC3C(C(=O)NC4CC(=NOCCN)CCC43C)C1CCC2=O` (stereo not shown) [I-bu, (E,Z) 3-(2-Aminoethoxyimino)-6-azaandrostane-7,17-dione hydrochloride] was run?
A: 1100 nM

Q: For `CC12CCC3C(C(=O)NC4CC(=NOC5CCNC5)CCC43C)C1CCC2=O` [I-bv, (E,Z) 3-[3-(R)-Pyrrolidinyl]oxyimino-6-azaandrostane-7,17-dione fumarate], which IC50 [1, 5] is on record?
A: 1400 nM

Q: How did the “% decrease from Emax after 20 min” value [3] turn out when `C[C@H]1O[C@@H](O[C@H]2[C@@H](O)C[C@H](O[C@H]3[C@@H](O)C[C@H](O[C@H]4CC[C@@]5(C)[C@H](CC[C@@H]6[C@@H]5C[C@@H](O)[C@]5(C)[C@@H](C7=CC(=O)OC7)CC[C@]65O)C4)O[C@@H]3C)O[C@@H]2C)C[C@H](O)[C@@H]1O` [digoxin, reference compound] was run?
A: 100%

Q: What about the “Lethal dose/ED80” value [3] of the same compound?
A: 4.0

Q: And the Maximum dose infused [3]?
A: 1.16 µmol/kg

Q: What about the Dead/treated [3] of the same compound?
A: 10/10

Q: What about the “ED80 (dose increasing +dP/dTmax by 80%)” value [3] of the same compound?
A: 0.29 µmol/kg

Q: And the “EDmax” value [3]?
A: 0.65 µmol/kg

Q: And the “Emax % increase in +dP/dTmax” value [3]?
A: 158%
